The record followed here is patent US10889628B2, “Optogenetic inhibition of overactive neuronal activity” (Emory University, priority 2013, dated 2021).

One test deals with cortical neuron cultures. The test is described as follows: Inhibition of evoked activity (action potential trains evoked by current injection) in cortical neuron cultures. The format is cell-based. The following applies: FIG. 5. Here is the method:
Trains of action potentials were evoked by 30 pA current injections.
Simultaneous patch clamp studies are conducted to determine cellular responses in (1) cells expressing both opsin and luciferase (i.e. both components in cis) and (2) cells expressing […] (i.e. both components in trans). As an alternative to co-infection, one can also deliver luciferase and inhibitory opsin together as a fusion protein. Various molecular strategies can also be employed (such as adding dimerizing or transmembrane domains) to facilitate co-localization of the luciferase and inhibitory opsin to the cell membrane.

The test system of another test is neuron. The test is described as follows: Inhibition of evoked spikes in a neuron expressing eNpHR3.0-Nanolantern. Type of test: cell-based. The note with it: CTZ added.

In the case of `Oc1ccc(Cc2nc3c(Cc4ccccc4)nc(-c4ccc(O)cc4)cn3c2O)cc1` [CTZ, Coelenterazine, reference compound], the “effect on firing rate in control (uninfected) neurons” value in the test with cortical neuron cultures is listed as “did not have any significant effect”.

In the case of “eNpHR3.0-Nanolantern: Fusion cassette of enhanced halorhodopsin eNpHR3.0 and Nanolantern, amino acid sequence SEQ ID NO: 11”, in the test with neuron (FIG. 8 (top)), the “luminescence signal during inhibition of evoked activity” value is “increase in luminescence signal”. For the same molecule, in the test with neuron (sub-threshold depolarizing current injection, FIG. 8), the “evoked action potentials after CTZ” value is on record as “completely attenuate evoked action potentials”.
